Test results taken from US20050004211A1, “Pharmaceutical compositions comprising aryl-substituted acyclic enediyne compounds” (KAOHSIUNG MEDICAL UNIVERSITY, priority 2003, published 2005).
Converted amounts (≈) assume the structure as drawn.

Columns and labels:
CNS cancer cell SF-268 = assay: Preliminary cytotoxicity test; assay type: cell-based, human
[1] = test system: Non-small cell Lung cancer cell NCI-H460; assay: Preliminary cytotoxicity test; assay type: cell-based, human
Breast cancer cell MCF-7 = assay: Preliminary cytotoxicity test; assay type: cell-based, human
[2] = test system: NCI (NCI-H661): human lung large cell carcinoma; assay: In vitro anticancer assay (cytotoxicity), human solid tumor cells; details: for IC50: Homo sapiens, NCI-H661, read-out: IC50 Values of Cytotoxicities, NCI; for IC50 Values of Cytotoxicities, NCI: NCI (NCI-H661)
[3] = test system: Hela: human cervix epitheloid carcinoma; assay: as above; details: for IC50: Homo sapiens, HeLa, read-out: IC50 Values of Cytotoxicities, Hela
Hepa: human hepatoma = assay: as above; details: for IC50: Homo sapiens, HepA, read-out: IC50 Values of Cytotoxicities, Hepa
[4] = test system: DLD (DLD-1): human colon adenocarcinoma; assay: as above; details: for IC50: Homo sapiens, DLD-1, read-out: IC50 Values of Cytotoxicities, DLD
[5] = test system: KB: human oral epidermoid carcinoma; assay: as above; details: for IC50: Homo sapiens, read-out: IC50 Values of Cytotoxicities, KB
topoisomerase I = target: T1, topoisomerase I (Homo sapiens, UniProt P11387); assay: Topoisomerase I course assay, cleavage of supercoiled pGEM9zf(−) DNA, gel electrophoresis; assay type: biochemical; details: for topo I inhibitor, overall finding: no concentration stated
T1 sequence (P11387 1-765): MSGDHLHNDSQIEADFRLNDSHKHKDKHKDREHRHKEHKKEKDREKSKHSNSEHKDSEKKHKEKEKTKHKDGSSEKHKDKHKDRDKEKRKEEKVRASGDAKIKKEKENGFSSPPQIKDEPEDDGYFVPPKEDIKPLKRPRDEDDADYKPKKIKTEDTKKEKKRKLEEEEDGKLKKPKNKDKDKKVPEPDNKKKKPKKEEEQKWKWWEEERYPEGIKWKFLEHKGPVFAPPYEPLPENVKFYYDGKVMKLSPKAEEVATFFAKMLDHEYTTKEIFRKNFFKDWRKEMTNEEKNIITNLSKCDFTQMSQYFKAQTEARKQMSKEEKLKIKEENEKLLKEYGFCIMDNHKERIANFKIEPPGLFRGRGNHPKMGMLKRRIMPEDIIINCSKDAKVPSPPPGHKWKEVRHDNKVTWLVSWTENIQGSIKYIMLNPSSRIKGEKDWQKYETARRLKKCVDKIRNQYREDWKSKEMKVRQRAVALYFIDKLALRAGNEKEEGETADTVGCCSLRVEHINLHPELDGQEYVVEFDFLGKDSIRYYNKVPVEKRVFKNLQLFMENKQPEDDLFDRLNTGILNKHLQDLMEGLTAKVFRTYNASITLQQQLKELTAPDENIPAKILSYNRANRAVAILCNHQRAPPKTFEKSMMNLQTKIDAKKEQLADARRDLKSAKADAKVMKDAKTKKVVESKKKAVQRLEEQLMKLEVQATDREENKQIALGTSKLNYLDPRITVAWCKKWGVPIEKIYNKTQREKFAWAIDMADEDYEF

| Compound | IC50 [2] [µg/mL] | IC50 [3] [µg/mL] | IC50 (Hepa: human hepatoma) [µg/mL] | IC50 [4] [µg/mL] | IC50 [5] [µg/mL] | IC50 Values of Cytotoxicities, NCI [2] | IC50 Values of Cytotoxicities, Hela [3] | IC50 Values of Cytotoxicities, Hepa (Hepa: human hepatoma) | IC50 Values of Cytotoxicities, DLD [4] | IC50 Values of Cytotoxicities, KB [5] | other results |
| --- | --- | --- | --- | --- | --- | --- | --- | --- | --- | --- | --- |
| 2-(6-(2-thioanisyl)-3-hexen-1,5-diynyl)benzonitrile [Compound 31] |  |  |  |  |  |  |  |  |  |  | Growth percentage, CNS cancer cell SF-268 (CNS cancer cell SF-268): 164%; Growth percentage, Non-small cell Lung cancer cell NCI-H460 [1]: 100%; Growth percentage, Breast cancer cell MCF-7 (Breast cancer cell MCF-7): 62% |
| 2-(6-(2-xylenyl)-3-hexen-1,5-diyne)benzonitrile [Compound 24] |  |  |  |  |  |  |  |  |  |  | Growth percentage, CNS cancer cell SF-268 (CNS cancer cell SF-268): 111%; Growth percentage, Non-small cell Lung cancer cell NCI-H460 [1]: 129%; Growth percentage, Breast cancer cell MCF-7 (Breast cancer cell MCF-7): 101% |
| CCCCC#C/C=C\C#Cc1ccccc1 [Compound 6, (3Z)-Decen-1,5-diynylbenzene] | 7.35 (≈ 35.3 µM) | > 20 | > 20 | > 20 | 14.4 (≈ 69.3 µM) |  |  |  |  |  | topo I inhibitor, overall finding (topoisomerase I): not Topo I inhibitors |
| N#Cc1ccccc1C#Cc1ccccc1C#CCOC1CCCCO1 (stereo not drawn) [Compound 7, 2-(2-(3-Tetrahydro-pyranyl-5-oxy-1-propynylphenyl)ethynyl)benzonitrile] |  |  |  |  |  | — (“—” means IC50 >20 μg/ml) | — (“—” means IC50 >20 μg/ml) | — (“—” means IC50 >20 μg/ml) | — (“—” means IC50 >20 μg/ml) | — (“—” means IC50 >20 μg/ml) |  |
| N#Cc1ccccc1C#Cc1ccccc1C#CCCCOC1CCCCO1 (stereo not drawn) [Compound 8] |  |  |  |  |  | — (“—” means IC50 >20 μg/ml) | — (“—” means IC50 >20 μg/ml) | — (“—” means IC50 >20 μg/ml) | 11.65 µg/mL | — (“—” means IC50 >20 μg/ml) |  |
| CCCCC#Cc1ccccc1C#Cc1ccccc1C#N [Compound 9, 2-(2-(2-Hexynylphenyl)ethynyl)benzonitrile] |  |  |  |  |  | — (“—” means IC50 >20 μg/ml) | — (“—” means IC50 >20 μg/ml) | — (“—” means IC50 >20 μg/ml) | 8.98 µg/mL | — (“—” means IC50 >20 μg/ml) | inhibition of topo I (topoisomerase I; 0.87 μM compound): no supercoiled DNA observed; inhibition of topo I (topoisomerase I; 8.7 μM compound): no supercoiled DNA observed; inhibition of topo I (topoisomerase I; 87 μM compound): showed restraint of topo I |
| CCCCCC#Cc1ccccc1C#Cc1ccccc1C#N [Compound 10, 2-(2-(2-Heptynylphenyl)ethynyl)benzonitrile] |  |  |  |  |  | 9.22 µg/mL | — (“—” means IC50 >20 μg/ml) | 5.13 µg/mL | 16.25 µg/mL | — (“—” means IC50 >20 μg/ml) | inhibition of topo I (topoisomerase I; 0.87 μM compound): no inhibition of topo I; inhibition of topo I (topoisomerase I; 8.7 μM compound): displayed inhibitory activity against topo I; inhibition of topo I (topoisomerase I; 87 μM compound): displayed inhibitory activity against topo I |
| CCCCCCC#C/C=C\C#Cc1ccc(C#C/C=C\C#CCCCCCC)cc1 [Compound 11, 1,4-Bis-(3-(Z)-Dodecen-1,5-diynyl)benzene] | > 20 | > 20 | > 20 | > 20 | > 20 |  |  |  |  |  | inhibition of topo I (topoisomerase I; 8.7 μM compound): No supercoiled DNA was observed; inhibition of topo I (topoisomerase I; 87 μM compound): No supercoiled DNA was observed; topo I inhibitor, overall finding (topoisomerase I): not topo I inhibitors |
| CCCCCCC#C/C=C\C#Cc1ccc(-c2ccc(C#C/C=C\C#CCCCCCC)cc2)cc1 [Compound 12, 4,4′-Bis-(3-(Z)-Dodecen-1,5-diynyl)biphenyl] | > 20 | > 20 | > 20 | > 20 | 5.57 (≈ 11.8 µM) |  |  |  |  |  | inhibition of topo I (topoisomerase I; 8.7 μM compound): No supercoiled DNA was observed; inhibition of topo I (topoisomerase I; 87 μM compound): No supercoiled DNA was observed; topo I inhibitor, overall finding (topoisomerase I): not topo I inhibitors |
| CCCCCCC#C/C=C\C#Cc1ccc(C#N)cc1 [Compound 14, 4-(3-(Z)-Dodecen-1,5-diynyl)benzonitrile] | > 20 | > 20 | > 20 | 11.9 (≈ 45.6 µM) | > 20 |  |  |  |  |  |  |
| CCCCCCC#C/C=C\C#Cc1ccccn1 [Compound 15, 2-(3-(Z)-Dodecen-1,5-diynyl)pyridine] | > 20 | > 20 | > 20 | 5.15 (≈ 21.7 µM) | > 20 |  |  |  |  |  |  |
| CCCCCCC#C/C=C\C#Cc1cccs1 [Compound 16, 2-(3-(Z)-Dodecen-1,5-diynyl)thiophene] | > 20 | > 20 | > 20 | 6.75 (≈ 27.8 µM) | > 20 |  |  |  |  |  |  |
| CCCCCCC#C/C=C\C#Cc1cnccn1 [Compound 17, 2-(3-(Z)-Dodecen-1,5-diynyl)pyrazine] | 9.43 (≈ 39.6 µM) | 5.3 (≈ 22.2 µM) | 12.3 (≈ 51.8 µM) | 3.89 (≈ 16.3 µM) | 5.93 (≈ 24.9 µM) |  |  |  |  |  |  |
| CCCCCCC#C/C=C\C#Cc1ccc(C(F)(F)F)cc1 [Compound 18, 4-(3-(Z)-Dodecen-1,5-diynyl)trifluoromethylbenzene] |  |  |  |  |  | 11.15 µg/mL | 5.86 µg/mL | 17.08 µg/mL | 5.71 µg/mL | 4.32 µg/mL | inhibition of topo I (topoisomerase I; 87 μM compound): displayed inhibitory activities of topo I |
| CCCCCCC#C/C=C\C#Cc1cccc(C(F)(F)F)c1 [Compound 19, 3-(3-(Z)-Dodecen-1,5-diynyl)trifluoromethylbenzene] |  |  |  |  |  | 7.73 µg/mL | — (“—” means IC50 >20 μg/ml) | 14.39 µg/mL | 7.05 µg/mL | 6.74 µg/mL |  |
| CCCCCCC#C/C=C\C#Cc1ccccc1C(F)(F)F [Compound 20, 2-(3-(Z)-Dodecen-1,5-diynyl)trifluoromethylbenzene] |  |  |  |  |  | 5.02 µg/mL | 2.15 µg/mL | 12.24 µg/mL | 8.91 µg/mL | 19.65 µg/mL |  |
| CCCCCCC#C/C=C\C#Cc1ccc([N+](=O)[O-])cc1 [Compound 21, 4-nitro-1-(3-(Z)-dodecen-1,5-diynyl)benzene] | > 20 | > 20 | > 20 | 1.66 (≈ 5.9 µM) | 13 (≈ 46.2 µM) |  |  |  |  |  |  |
| CCCCCCC#C/C=C\C#Cc1ccccc1C(=O)O [Compound 22, 2-(3-(Z)-Dodecen-1,5-diynyl)benzoate] |  |  |  |  |  | — (“—” means IC50 >20 μg/ml) | — (“—” means IC50 >20 μg/ml) | — (“—” means IC50 >20 μg/ml) | 7.27 µg/mL | — (“—” means IC50 >20 μg/ml) |  |
| Cc1ccc(C#CC=CC#Cc2ccccc2C#N)cc1 [Compound 28, 2-(6-(4-tolyl)-3-hexen-1,5-diynyl)benzonitrile] |  |  |  |  |  |  |  |  |  |  | Growth percentage, CNS cancer cell SF-268 (CNS cancer cell SF-268): 105%; Growth percentage, Non-small cell Lung cancer cell NCI-H460 [1]: 96%; Growth percentage, Breast cancer cell MCF-7 (Breast cancer cell MCF-7): 80% |
| N#Cc1ccccc1C#CC=CC#Cc1cccs1 [Compound 29, 2-(6-(2-thienyl)-3-hexen-1,5-diynyl)benzonitrile] |  |  |  |  |  |  |  |  |  |  | Growth percentage, CNS cancer cell SF-268 (CNS cancer cell SF-268): 96%; Growth percentage, Non-small cell Lung cancer cell NCI-H460 [1]: 34%; Growth percentage, Breast cancer cell MCF-7 (Breast cancer cell MCF-7): 49% |
| N#Cc1ccccc1C#CC=CC#Cc1ccc(N)cc1 [Compound 33, 2-[6-(p-anilinyl)-3-hexen-1,5-diynyl]benzonitrile] |  |  |  |  |  |  |  |  |  |  | Growth percentage, CNS cancer cell SF-268 (CNS cancer cell SF-268): 92%; Growth percentage, Non-small cell Lung cancer cell NCI-H460 [1]: 94%; Growth percentage, Breast cancer cell MCF-7 (Breast cancer cell MCF-7): 100% |
| CC[C@@]1(O)C(=O)OCc2c1cc1n(c2=O)Cc2cc3ccccc3nc2-1 [camptothecin, reference compound] |  |  |  |  |  |  |  |  |  |  | inhibition of topo I (topoisomerase I; 26.1 μM): less topo I inhibitory activity; inhibition of topo I (topoisomerase I; 43.5 μM): observable inhibition of topo I |
